The source of these data is publication PMC4086859 (Journal of medicinal chemistry, 2014).

As usually defined, the inhibition is how much of the control response was suppressed.

Each structure is given as a SMILES string. Structures can show the parent of a compound that is named as a salt.

The subject of one assay is OVCAR-8. Kind of assay: Cytotoxic activity, OVCAR-8 cells. The class given is cell-based. The conditions noted are these: Homo sapiens, OVCAR-8, 96 h, read-out: EC50 OVCAR-8.
In another assay the test system is NCI/ADR-RES. Kind of assay: Cytotoxic activity, NCI/ADR-RES cells. The format is cell-based. The conditions noted are these: Homo sapiens, 96 h, read-out: EC50 NCI/ADR-RES.
Assay [1] has as its target tubulin (colchicine site) (Bos taurus, UniProt P81947+Q6B856). Kind of assay: Inhibition of [3H]colchicine binding to tubulin. The settings on record: read-out: colchicine binding inhibition (%). On the set-up: species or system bovine.
Another assay has as its system OVCAR-8 cells. Kind of assay: Cell cycle analysis by FACS. The format is cell-based, human. The settings on record: OVCAR-8, 1.0 μM, 24 h, P < 0.05. (In general: In flow cytometry, cells or beads pass a laser one at a time.)

tubulin (colchicine site), sequence (P81947 whole entry): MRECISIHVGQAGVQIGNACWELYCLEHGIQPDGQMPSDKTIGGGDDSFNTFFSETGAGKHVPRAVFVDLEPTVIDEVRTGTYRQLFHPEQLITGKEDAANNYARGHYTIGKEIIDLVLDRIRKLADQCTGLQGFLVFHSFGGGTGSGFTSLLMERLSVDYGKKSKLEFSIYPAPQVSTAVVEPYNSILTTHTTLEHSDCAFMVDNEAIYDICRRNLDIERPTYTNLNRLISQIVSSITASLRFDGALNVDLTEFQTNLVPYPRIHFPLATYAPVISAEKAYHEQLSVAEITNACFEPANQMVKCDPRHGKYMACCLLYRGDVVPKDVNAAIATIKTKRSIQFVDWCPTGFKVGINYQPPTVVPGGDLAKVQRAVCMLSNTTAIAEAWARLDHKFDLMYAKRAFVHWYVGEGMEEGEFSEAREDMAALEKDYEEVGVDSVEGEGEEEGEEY
tubulin (colchicine site), sequence (Q6B856 whole entry): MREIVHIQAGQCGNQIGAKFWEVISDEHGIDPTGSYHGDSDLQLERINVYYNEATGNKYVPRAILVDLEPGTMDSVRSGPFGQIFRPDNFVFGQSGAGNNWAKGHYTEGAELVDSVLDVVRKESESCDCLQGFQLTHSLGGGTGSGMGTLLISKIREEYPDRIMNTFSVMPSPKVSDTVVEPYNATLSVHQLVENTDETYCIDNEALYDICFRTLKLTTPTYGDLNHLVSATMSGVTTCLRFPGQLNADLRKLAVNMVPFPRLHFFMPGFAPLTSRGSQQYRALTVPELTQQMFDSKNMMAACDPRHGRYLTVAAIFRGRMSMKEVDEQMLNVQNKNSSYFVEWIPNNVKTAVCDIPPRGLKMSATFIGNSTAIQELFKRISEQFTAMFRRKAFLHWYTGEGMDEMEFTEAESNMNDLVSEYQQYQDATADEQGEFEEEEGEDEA

For the molecule `COc1ccc(/C=C\c2cc(OC)c(OC)c(OC)c2)cc1O` [CA-4, combretastatin A-4], the EC50 in the assay with OVCAR-8 came out at 18 ± 4 nM; with NCI/ADR-RES, 13 ± 4 nM.

Take `c1ccc(-c2cccc(Nc3ncnc4cc5c(cc34)OCO5)c2)cc1` [Compound 1]: the inhibition at 5 µM in assay [1] was determined as 72 ± 0.4%. In addition, in the assay on OVCAR-8 cells, the “proportion of cells arrested at G2/M compared to control cells” value was “significantly increased”.

In the case of `c1ccc(-c2cccc(Nc3ncnc4cc5c(cc34)OCCO5)c2)cc1` [Compound 2], the EC50 in the assay on NCI/ADR-RES was determined as 350 ± 80 nM. In addition, the inhibition at 5 µM in assay [1] was 41 ± 7%.

Take `c1ccc(-c2cccc(Nc3ncnc4cc5c(cc34)OCCCO5)c2)cc1` [Compound 3]: the inhibition at 5 µM in assay [1] was determined as 34 ± 1%. With `Cl.c1cc(Nc2ncnc3cc4c(cc23)OCCO4)cc(-c2cccs2)c1` [Compound 5, (7,8-Dihydro[1,4]dioxino[2,3-g]quinazolin-4-yl)-[3′-(thien-2″-yl)phenyl]amine Hydrochloride], in assay [1], the inhibition at 5 µM came out at 75 ± 0.8%. Moreover, the “proportion of cells arrested at G2/M compared to control cells” value in the assay on OVCAR-8 cells is reported as “significantly increased”.

`c1ccc(-c2cccc(Nc3ncnc4cc5c(cc34)OCCO5)c2)nc1` [Compound 6, (7,8-Dihydro[1,4]dioxino[2,3-g]quinazolin-4-yl)-[3′-(pyridin-yl-2″-yl)phenyl]amine Hydrochloride]: in assay [1], the inhibition at 5 µM stood at 25 ± 4%. Take `c1cc(Nc2ncnc3cc4c(cc23)OCCO4)cc(-c2ccc[nH]2)c1` [Compound 9, (7,8-Dihydro[1,4]dioxino[2,3-g]quinazolin-4-yl)-[3′-(pyrrol-2″-yl)phenyl]amine Hydrochloride]: the inhibition at 5 µM in assay [1] came to 33 ± 7%. For the molecule `CC(=O)O[C@H]1C(=O)[C@@]2(C)[C@H]([C@H](OC(=O)c3ccccc3)[C@]3(O)C[C@H](OC(=O)[C@H](O)[C@@H](NC(=O)c4ccccc4)c4ccccc4)C(C)=C1C3(C)C)[C@]1(OC(C)=O)CO[C@@H]1C[C@@H]2O` [paclitaxel], the figures for the EC50 in the assay on OVCAR-8 and in the assay on NCI/ADR-RES were 5.5 ± 0.7 nM and 5000 nM, respectively.
